Earlier results on 1 compound are cited in article PMC7089779 (ChemMedChem, 2018).

In series [1] the test system is T. brucei brucei trypomastigotes wild type strain. Conditions: read-out: IC50 T. brucei brucei trypomastigotes wild type strain; cited from earlier work.
The subject of another series is HepG2 cell line. Conditions: read-out: CC50 HepG2; cited from earlier work.
For series [2] the following is noted: cited from earlier work.
In series [3] the test system is T. brucei brucei trypomastigotes. Conditions: cited from earlier work.
Series [4] deals with L. infantum axenic amastigotes. The conditions noted are these: read-out: IC50 L. infantum axenic amastigotes; cited from earlier work.
Series [5] concerns T. brucei brucei trypomastigotes NTR over-expressing strain. The conditions noted are these: wild type IC50 / NTR over-expressing IC50; cited from earlier work.

The term IC50 denotes the concentration needed to halve the response being measured. The term CC50 denotes the concentration at which the toxic effect on the cells reaches its halfway point. For `O=c1[nH]c2c([N+](=O)[O-])cccc2cc1Br` [Initial Hit, 3-bromo-8-nitroquinolin-2(1H)-one], the IC50 is 17.7 ± 1 µM in series [1], 1.9 ± 0.44 µM in series [3] (read-out: IC50 T. brucei brucei trypomastigotes) and 7.1 ± 1.5 µM in series [4]. Besides, the CC50 with HepG2 cell line is 92 ± 13 µM. Besides, the “genotoxicity in the comet assay” value in series [2] is given as “not genotoxic”. The “Antitrypanosomal selectivity Index” value in series [3] (CC50 HepG2 / IC50 T. brucei brucei) is listed as 48. Further, in series [5], the Fold change is listed as 4.5.
